PubChem BioAssay (NCI)
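Values below derive from 48-hour exposures of cells grown in 96-well plates, with endpoints linearly interpolated between the two concentrations bracketing the appropriate inhibition level. TGI denotes the concentration required for complete inhibition of growth.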

Key:
Assay in all cases: DTP human tumour cell line panel, 48 h
[1] = system: 786-0 renal
[2] = system: A498 renal
[3] = system: A549 NSCLC
[4] = system: ACHN renal
[5] = system: BT-549 breast
[6] = system: CAKI-1 renal
[7] = system: COLO 205 colon
[8] = system: DU-145 prostate
[9] = system: EKVX NSCLC
[10] = system: HCC-2998 colon
[11] = system: HCT-116 colon
[12] = system: HCT-15 colon
[13] = system: HOP-62 NSCLC
[14] = system: HOP-92 NSCLC
[15] = system: HT29 colon
[16] = system: IGROV1 ovarian
[17] = system: K-562 leukemia
[18] = system: KM12 colon
[19] = system: M14 melanoma
[20] = system: MALME-3M melanoma
[21] = system: MCF7 breast
[22] = system: MDA-MB-231 breast
[23] = system: MDA-MB-435
[24] = system: MDA-N
[25] = system: MOLT-4 leukemia
[26] = system: NCI-H226 lung
[27] = system: NCI-H23 lung
[28] = system: NCI-H460 lung
[29] = system: NCI-H522 lung
[30] = system: NCI/ADR-RES ovarian
[31] = system: OVCAR-4 ovarian
[32] = system: OVCAR-5 ovarian
[33] = system: PC-3 prostate
[34] = system: RPMI-8226 leukemia
[35] = system: SF-268 CNS
[36] = system: SF-295 CNS
[37] = system: SK-MEL-2 melanoma
[38] = system: SK-MEL-28 melanoma
[39] = system: SK-MEL-5 melanoma
[40] = system: SK-OV-3 ovarian
[41] = system: SN12C renal
[42] = system: SNB-19 CNS
[43] = system: SNB-75 CNS
[44] = system: SW-620 colon
[45] = system: TK-10 renal
[46] = system: U251 CNS
[47] = system: UACC-257 melanoma
[48] = system: UACC-62 melanoma
[49] = system: UO-31 renal
[50] = system: CCRF-CEM leukemia
[51] = system: HL-60(TB) leukemia
[52] = system: HS 578T breast
[53] = system: LOX IMVI melanoma
[54] = system: OVCAR-3 ovarian
[55] = system: OVCAR-8 ovarian
[56] = system: RXF 393 renal
[57] = system: SF-539 CNS
[58] = system: SR leukemia
[59] = system: T-47D breast

For `Oc1ccc(O)c(Sc2nnc(CCCCCCCCc3nnc(Sc4cc(O)ccc4O)o3)o2)c1`, the TGI [1] was 35.7 µM, the TGI [2] was greater than 100 µM and the TGI [3] was greater than 100 µM. For the same compound, the TGI [4] was 85.9 µM, the TGI [5] was greater than 100 µM and the TGI [6] was 69.7 µM. For the same compound, the TGI [7] was greater than 100 µM, the TGI [8] was greater than 100 µM and the TGI [9] was greater than 100 µM. For the same compound, the TGI [10] was greater than 100 µM, the TGI [11] was 32.5 µM and the TGI [12] was greater than 100 µM. It also gave a TGI [13] greater than 100 µM, a TGI [14] of 65.7 µM and a TGI [15] greater than 100 µM. For the same compound, the TGI [16] was greater than 100 µM, the TGI [17] was greater than 100 µM and the TGI [18] was greater than 100 µM. It also gave a TGI [19] greater than 100 µM, a TGI [20] greater than 100 µM and a TGI [21] of 94.1 µM. For the same compound, the TGI [22] was greater than 100 µM, the TGI [23] was 35.8 µM and the TGI [24] was 32.9 µM. For the same compound, the TGI [25] was greater than 100 µM, the TGI [26] was greater than 100 µM and the TGI [27] was greater than 100 µM. For the same compound, the TGI [28] was greater than 100 µM, the TGI [29] was 55 µM and the TGI [30] was greater than 100 µM. For the same compound, the TGI [31] was greater than 100 µM, the TGI [32] was greater than 100 µM and the TGI [33] was greater than 100 µM. For the same compound, the TGI [34] was greater than 100 µM, the TGI [35] was greater than 100 µM and the TGI [36] was greater than 100 µM. For the same compound, the TGI [37] was greater than 100 µM, the TGI [38] was greater than 100 µM and the TGI [39] was greater than 100 µM. It also gave a TGI [40] greater than 100 µM, a TGI [41] greater than 100 µM and a TGI [42] greater than 100 µM. It also gave a TGI [43] greater than 100 µM, a TGI [44] greater than 100 µM and a TGI [45] greater than 100 µM. It also gave a TGI [46] greater than 100 µM, a TGI [47] greater than 100 µM and a TGI [48] greater than 100 µM. It also gave a TGI [49] of 32 µM.

Work on `COc1cc2oc(=O)ccc2cc1C1OC(=O)C2OC21C` (stereo not given) yielded a TGI [1] greater than 100 µM, a TGI [3] greater than 100 µM and a TGI [4] greater than 100 µM. The TGI [6] was greater than 100 µM, the TGI [50] was greater than 100 µM and the TGI [7] was greater than 100 µM. The TGI [8] was greater than 100 µM, the TGI [9] was greater than 100 µM and the TGI [10] was greater than 100 µM. The TGI [11] was greater than 100 µM, the TGI [12] was greater than 100 µM and the TGI [51] was greater than 100 µM. For the same compound, the TGI [13] was greater than 100 µM, the TGI [14] was greater than 100 µM and the TGI [52] was greater than 100 µM. The TGI [15] was greater than 100 µM, the TGI [16] was greater than 100 µM and the TGI [17] was greater than 100 µM. It also gave a TGI [18] greater than 100 µM, a TGI [53] greater than 100 µM and a TGI [19] greater than 100 µM. For the same compound, the TGI [20] was greater than 100 µM, the TGI [21] was greater than 100 µM and the TGI [22] was greater than 100 µM. It also gave a TGI [23] greater than 100 µM, a TGI [24] greater than 100 µM and a TGI [25] greater than 100 µM. It also gave a TGI [26] greater than 100 µM, a TGI [27] greater than 100 µM and a TGI [28] greater than 100 µM. For the same compound, the TGI [30] was greater than 100 µM, the TGI [54] was greater than 100 µM and the TGI [31] was greater than 100 µM. For the same compound, the TGI [32] was greater than 100 µM, the TGI [55] was greater than 100 µM and the TGI [33] was greater than 100 µM. It also gave a TGI [34] greater than 100 µM, a TGI [56] greater than 100 µM and a TGI [35] greater than 100 µM. It also gave a TGI [36] greater than 100 µM, a TGI [57] greater than 100 µM and a TGI [37] greater than 100 µM. It also gave a TGI [38] greater than 100 µM, a TGI [39] greater than 100 µM and a TGI [40] greater than 100 µM. The TGI [41] was greater than 100 µM, the TGI [42] was greater than 100 µM and the TGI [43] was greater than 100 µM. The TGI [58] was greater than 100 µM, the TGI [44] was greater than 100 µM and the TGI [59] was greater than 100 µM. For the same compound, the TGI [45] was greater than 100 µM, the TGI [46] was greater than 100 µM and the TGI [47] was greater than 100 µM. For the same compound, the TGI [48] was greater than 100 µM and the TGI [49] was greater than 100 µM.
